Measurements reported in patent publication US20170166870A1, “HUMAN HEPATIC 3D CO-CULTURE MODEL AND USES THEREOF” (Vrije Universiteit Brussel, priority 2014, published 2017).
“And” between values parts separate entries of the source, which are not always exact repeats. Identical values can stand only once. Like-named read-outs stand apart in the source and are kept apart here.

Assays:
3D HepaRG/HSC co-culture [1] = assay: APAP toxicity assay, cell viability by ATP (Cell titer Glo); assay type: cell-based, human; details: Homo sapiens, 3D HepaRG/HSC, current study, 0% DMSO, read-out: APAP EC50 values (±stdev)
Experimental: APAP toxicity assay was performed in 3D HepaRG/co-culture as well as in 3D HepaRG monoculture. […] For some experiments the culture medium was supplemented with 2.5 mM valproic acid (VPA sodium salt, Sigma-Aldrich) or with cytokine mixture (Raicevic et al.,2012)-interleukin (IL)-1β 25 ng/mL (Peprotech, Rocky Hill, N.J., USA), interferon (IFN)-γ 10^3 U/mL, tumor necrosis factor (TNF)-a 50 ng/mL, and IFN-α 3·10^3 U/mL (all from Prospec, Inc., East Brunswick, N.J., USA). For the recovery assay, at the end of APAP incubation, cells were washed using HepaRG culture 0% DMSO medium and kept in the same medium for 3 more days.
At the end of the incubation period, 5 spheroids per condition were pooled and lysed for RNA analyses, while the remaining spheroids per condition were lysed individually for viability analysis using the Cell titer Glo kit (Promega) for ATP measurements following the instructions of the manufacturer.

3D HSC mono-culture = assay: mRNA expression of HSC activation markers (qPCR) after APAP incubation; assay type: cell-based, human; details: 20 mM APAP, 24h, Assays 1-3
3D HepaRG mono-culture = assay: Pro-collagen measurement in culture supernatant (Type I C-Peptide); assay type: cell-based, human; details: upon APAP incubation, 24 h
Experimental: (§1) Samples for pro-collagen measurement were five times concentrated using 10 kD Vivaspin 500 ultrafiltration columns (VWR, Radnor, Pa.), the resulting supernatant was analysed for the presence of Type I C-Peptide using the TAKARA (Chanteloup-en-Brie, France) kit.

3D HepaRG/HSC co-culture [2] = assay: as above; assay type: cell-based, human; details: upon APAP incubation, 24 h
Experimental: as §1

[3] = tested on: hepatic stellate cells isolated from mice; assay: Acute and chronic APAP liver injury model, HSC activation markers and collagen deposition; assay type: in vivo, mouse
Description: Male balbC and C57BL/6 mice were used for all experiments; animals were housed in a controlled environment with free access to chow and water. The experimental protocol was approved by the institutional Animal Care and Use Committee of Vrije Universiteit Brussel, permit number 14-212-2, and National Institutes of Health principles of laboratory animal care (NIH publication 86-23, revised 1995) were followed. Acute and chronic models for liver fibrosis were used on mice of age 7-8 weeks. Acute injury was induced by a single dose of Acetaminophen (APAP) of 50; 150; 300 or 500 mg APAP/kg weight. Chronic injury was induced by repeated injections of APAP twice per week for 4 weeks. Hepatic stellate cells were collected at the end of the treatment. Isolation of stellate cells was done using FACS, based on UV-positivity. After isolation cells were not cultured, but immediately used for mRNA analysis. […] For quantitative real-time polymerase chain reaction (qPCR), GoTaq QPCR Master Mix with BRYTE green (Promega, Madison, Wis.) was used, subjected to qPCR in a 7500 real time PCR system and analysed using System SDS software v2.0.5 (Applied Biosystems), using GAPDH for normalisation. Reliability of GAPDH as house-keeping gene was determined using Normfinder (Andersen et al., 2004; Cancer Res 64(15): 5245-5250) to produce the ΔCT values. […]

Structure (SMILES): CC(=O)Nc1ccc(O)cc1 [APAP, Acetaminophen]
- EC50 (3D HepaRG/HSC co-culture [1]; 144 h, Day 6/7): 10 ± 1.09 mM
- EC50 (3D HepaRG/HSC co-culture [1]; 504 h, Day 21/22): 8 ± 4.17 mM
- Loxl2 mRNA fold increase (3D HSC mono-culture): 1.13 +/− 0.05 fold and 0.70 +/− 0.23 fold and 0.85 +/− 0.86 fold
- collagen secretion (C-terminal pro-collagen in supernatant) (3D HepaRG mono-culture): not observed
- collagen secretion (C-terminal pro-collagen in supernatant) (3D HepaRG/HSC co-culture [2]): significant increase of collagen secretion
- activation marker gene expression in isolated HSC ([3]; acute and chronic exposure, doses equal or higher than 300 mg/kg weight): significantly increase of the activation marker gene expression
- fibrosis profile at the protein level (collagen) ([3]; chronic exposure (4 weeks)): deposition of collagen around the portal area with septa formation
